Source: patent US20220267260A1, “COMPOUNDS CONTAINING A SULFONIC GROUP AS KAT INHIBITORS” (Epizyme, Inc., priority 2016, published 2022)

Tests used:
KAT5 = biological target: T1, KAT5 (Homo sapiens, UniProt Q92993); experiment: KAT5 enzyme inhibition assay (SAMDI mass spectrometry); format: biochemical; conditions: His-TEV-FL KAT5-Flag enzyme construct
T1 construct: His-TEV tag (N, cleaved yes); made in house

KAT6A = biological target: T2, KAT6A (Homo sapiens, UniProt Q92794); experiment: KAT6A enzyme inhibition assay (SAMDI mass spectrometry); format: biochemical; conditions: His-TEV-KAT6A 501-784 enzyme construct
T2 construct: His-TEV tag (N, cleaved yes); made in house
T2 sequence (Q92794 with tags, fused parts or gaps): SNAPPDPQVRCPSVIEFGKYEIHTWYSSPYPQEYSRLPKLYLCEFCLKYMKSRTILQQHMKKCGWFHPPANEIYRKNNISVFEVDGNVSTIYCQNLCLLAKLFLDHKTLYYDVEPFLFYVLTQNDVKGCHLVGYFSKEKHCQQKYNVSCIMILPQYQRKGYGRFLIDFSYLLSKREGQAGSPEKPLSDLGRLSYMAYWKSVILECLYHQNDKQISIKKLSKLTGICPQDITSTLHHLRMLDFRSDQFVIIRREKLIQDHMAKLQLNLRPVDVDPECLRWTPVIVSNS

T1 sequence (Q92993 with tags, fused parts or gaps): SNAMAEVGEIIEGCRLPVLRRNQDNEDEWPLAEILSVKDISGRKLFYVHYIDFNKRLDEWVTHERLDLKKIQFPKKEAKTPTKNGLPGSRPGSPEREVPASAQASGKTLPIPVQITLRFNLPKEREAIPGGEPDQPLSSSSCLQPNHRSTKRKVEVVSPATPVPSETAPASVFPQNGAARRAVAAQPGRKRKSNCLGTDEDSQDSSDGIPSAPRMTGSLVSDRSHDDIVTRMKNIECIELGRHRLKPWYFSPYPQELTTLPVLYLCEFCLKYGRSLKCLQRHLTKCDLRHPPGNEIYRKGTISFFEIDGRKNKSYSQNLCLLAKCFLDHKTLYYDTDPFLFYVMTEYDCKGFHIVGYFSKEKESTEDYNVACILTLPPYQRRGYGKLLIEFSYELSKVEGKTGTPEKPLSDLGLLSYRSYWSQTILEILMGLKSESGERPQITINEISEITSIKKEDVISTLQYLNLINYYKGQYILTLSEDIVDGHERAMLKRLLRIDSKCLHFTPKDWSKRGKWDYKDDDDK

IC50 (KAT5)	IC50 (KAT6A)	Compound
≤ 10 µM	10 to 50 µM	COCCNC(=O)c1cccc(-c2cc(C)c(F)c(C(=O)NNS(=O)(=O)CC3CCCCC3)c2)c1 [Compound I-447]
≤ 10 µM	10 to 50 µM	Cc1cc(-c2cccc(F)c2F)cc(C(=O)NNS(=O)(=O)C2CCCCC2)c1F [Compound I-381]
> 100 µM	> 100 µM	CCNC(=O)c1cc(Cl)c(F)c(C(=O)NNS(=O)(=O)C2CCOCC2)c1 [Compound I-492]
> 100 µM	> 100 µM	O=S(=O)(Nc1ncc(-c2cc(-c3ccccc3)ccc2F)[nH]1)c1ccccc1 [Compound I-67]
≤ 10 µM	≤ 10 µM	O=C(NNS(=O)(=O)c1ccccc1)c1c(F)c(Cl)cc(-c2ccccc2)c1F [Compound I-136]
50 to 100 µM	50 to 100 µM	Cc1cc(-c2ccccc2)cc(C(=O)NCc2noc3ccccc23)c1F [Compound I-368]
≤ 10 µM	≤ 10 µM	CCC(=O)N1CCCC(CS(=O)(=O)NNC(=O)c2cc(-c3ccccc3)cc(C)c2F)C1 (centres unmarked) [Compound I-280]
≤ 10 µM	≤ 10 µM	Cc1cc(-c2ccccc2)cc(C(=O)NNS(=O)(=O)CC2CCCCC2)c1F [Compound I-227]
10 to 50 µM	> 100 µM	COc1ccccc1-c1cc(C)c(F)c(C(=O)NNS(=O)(=O)CC2CCCCC2)c1 [Compound I-370]
10 to 50 µM	10 to 50 µM	COCCN1CCC(CS(=O)(=O)NNC(=O)c2cc(-c3ccccc3)cc(C)c2F)C1 (centres unmarked) [Compound I-336]
10 to 50 µM	10 to 50 µM	O=C(NNS(=O)(=O)c1cc(-c2ccccc2)cc(Cl)c1F)c1ccccc1 [Compound I-523]
≤ 10 µM	10 to 50 µM	Cc1cc(-c2cccc(Cl)c2)cc(C(=O)NNS(=O)(=O)C2CCCCC2)c1F [Compound I-358]
50 to 100 µM	50 to 100 µM	Cc1c(-c2ccccc2)ccc(F)c1C(=O)NNS(=O)(=O)CC1CCCCC1 [Compound I-258]
10 to 50 µM	10 to 50 µM	Cc1cc(-c2ccccc2)cc(C(=O)NNS(=O)(=O)C2CCN(CCc3ccccc3)C2)c1F (centres unmarked) [Compound I-36]
50 to 100 µM	10 to 50 µM	Cc1cc(-c2ccccc2)cc(C(=O)NNS(=O)(=O)C2CCN(C)C2)c1F (centres unmarked) [Compound I-31]
> 100 µM	> 100 µM	O=C(NNS(=O)(=O)c1ccccc1)c1cccc2ccccc12 [Compound I-180]
≤ 10 µM	≤ 10 µM	COc1cccc(CS(=O)(=O)NNC(=O)c2cc(-c3ccccc3)cc(C)c2F)c1 [Compound I-80]
> 100 µM	50 to 100 µM	COc1ccccc1S(=O)(=O)NNC(=O)c1c(F)ccc(-c2ccccc2)c1C [Compound I-237]
≤ 10 µM	≤ 10 µM	CC(=O)N1CCC(CS(=O)(=O)NNC(=O)c2cc(-c3ccccc3)cc(C)c2F)C1 (centres unmarked) [Compound I-335]
≤ 10 µM	≤ 10 µM	Cc1cc(-c2ccccc2)cc(C(=O)NNS(=O)(=O)c2ccc(Cl)cc2)c1F [Compound I-217]
10 to 50 µM	10 to 50 µM	Cc1cc(-c2ccccc2)cc(C(=O)NNS(=O)(=O)C2CCN(C)CC2)c1F [Compound I-90]
> 100 µM	> 100 µM	Cc1cc(-c2ccccc2)cc(C(=O)NNS(=O)(=O)C2CN(Cc3ccc(Cl)cc3)C2)c1F [Compound I-63]
> 100 µM	> 100 µM	Cc1cccc(F)c1C(=O)NNS(=O)(=O)c1ccccc1 [Compound I-135]

IC50 (KAT5)	IC50 (KAT6A)	Compound
≤ 10 µM	≤ 10 µM	Cc1cc(-c2ccccc2)cc(C(=O)NNS(=O)(=O)c2ccccn2)c1F [Compound I-209]
10 to 50 µM	≤ 10 µM	Cc1cccc(-c2ccc(F)c(C(=O)NNS(=O)(=O)c3ccccc3)c2)c1 [Compound I-125]
10 to 50 µM	≤ 10 µM	CC(=O)N1CC(CS(=O)(=O)NNC(=O)c2cc(-c3ccccc3)cc(C)c2F)C1 [Compound I-303]
> 100 µM	> 100 µM	Cc1cc(-c2ccccc2)cc(C(=O)NNCC(F)(F)F)c1F [Compound I-476]
≤ 10 µM	≤ 10 µM	CC(C)(C)OC(=O)N1CCCC(CS(=O)(=O)NNC(=O)c2cc(-c3cccc(F)c3)cc(Cl)c2F)C1 (centres unmarked) [Compound I-396]
> 100 µM	> 100 µM	O=C(NNS(=O)(=O)C1CCNCC1)c1cc(Cl)cc(Cl)c1F [Compound I-406]
≤ 10 µM	≤ 10 µM	O=C(NNS(=O)(=O)CC1CCCN(C(=O)C2CCC2)C1)c1cc(-c2cccc(F)c2)cc(Cl)c1F (centres unmarked) [Compound I-417]
10 to 50 µM	10 to 50 µM	Cc1cc(-c2ccccc2)cc(C(=O)NNS(=O)(=O)CC2CCNC2)c1F (centres unmarked) [Compound I-320]
> 100 µM	> 100 µM	Cc1cc(-c2ccccc2)cc(C(=O)NNS(=O)(=O)C2CC3CCC(C2)N3)c1F (centres unmarked) [Compound I-184]
≤ 10 µM	≤ 10 µM	Cc1cc(-c2ccccc2)cc(C(=O)NNS(=O)(=O)c2ccccc2Cl)c1F [Compound I-263]
10 to 50 µM	50 to 100 µM	CCN1CCC(S(=O)(=O)NNC(=O)c2cc(-c3ccccc3)cc(C)c2F)CC1 [Compound I-91]
50 to 100 µM	10 to 50 µM	COc1ccc(Cn2ncc3c(C(=O)NNS(=O)(=O)c4ccccc4)cc(-c4ccccc4)cc32)cc1 [Compound I-247]
10 to 50 µM	≤ 10 µM	Cn1cnc(-c2ccc(F)c(C(=O)NNS(=O)(=O)c3ccccc3)c2F)c1 [Compound I-259]
10 to 50 µM	≤ 10 µM	Cc1cc(-c2cccc(F)c2)cc(C(=O)NNS(=O)(=O)CC2CNCCO2)c1F (centres unmarked) [Compound I-428]
> 100 µM	10 to 50 µM	Cc1cc(-c2ccccc2)cc(C(=O)NN(C)S(=O)(=O)c2ccccc2)c1F [Compound I-242]
> 100 µM	50 to 100 µM	O=C(NNS(=O)(=O)c1ccccc1)c1ccc(F)cc1 [Compound I-193]
10 to 50 µM	10 to 50 µM	Cc1cc(-c2ccccc2)cc(C(=O)NNS(=O)(=O)C2CN(Cc3ccccc3Cl)C2)c1F [Compound I-37]
> 100 µM	> 100 µM	Cc1nn(Cc2ccccc2)cc1C(=O)NNS(=O)(=O)c1ccccc1 [Compound I-122]
10 to 50 µM	10 to 50 µM	O=C(NNS(=O)(=O)C1CCCCC1)c1cc(-c2ccccc2)ccc1F [Compound I-360]
10 to 50 µM	> 100 µM	CCc1cc(Cl)c(F)c(C(=O)NNS(=O)(=O)C2CCCCC2)c1 [Compound I-420]
> 100 µM	10 to 50 µM	COc1cccc(S(=O)(=O)NNC(=O)c2ccccc2F)c1 [Compound I-177]
10 to 50 µM	≤ 10 µM	Cc1cccc(S(=O)(=O)NNC(=O)c2c(F)ccc(-c3ccccc3)c2F)c1 [Compound I-155]
10 to 50 µM	≤ 10 µM	Cc1cccc(C(=O)NNS(=O)(=O)c2ccccc2)c1F [Compound I-183]

IC50 (KAT5)	IC50 (KAT6A)	Compound
> 100 µM	50 to 100 µM	O=C(NNS(=O)(=O)c1ccccc1)c1c(F)ccc(-c2ncc[nH]2)c1F [Compound I-264]
10 to 50 µM	10 to 50 µM	Cc1cc(F)cc(-c2cc(Cl)c(F)c(C(=O)NNS(=O)(=O)C3CCCCC3)c2)c1 [Compound I-484]
≤ 10 µM	≤ 10 µM	Cc1cc(-c2cccc(F)c2)cc(C(=O)NNS(=O)(=O)CC2CCCN(C(=O)C(C)(C)C)C2)c1F (centres unmarked) [Compound I-294]
≤ 10 µM	10 to 50 µM	Cc1cc(-c2ccccc2)cc(C(=O)NNS(=O)(=O)C2CCCC2)c1F [Compound I-19]
≤ 10 µM	≤ 10 µM	Cc1cc(-c2ccccc2)cc(C(=O)NNS(=O)(=O)Cc2ccc(Cl)cc2)c1F [Compound I-6]
10 to 50 µM	> 100 µM	COCCNC(=O)c1cccc(-c2cc(C)c(F)c(C(=O)NNS(=O)(=O)C3CCCCC3)c2)c1 [Compound I-445]
10 to 50 µM	10 to 50 µM	COc1cccc(-c2cc(C)c(F)c(C(=O)NNS(=O)(=O)C3CCCCC3)c2)c1 [Compound I-348]
> 100 µM	> 100 µM	CNC(=O)Cn1nc(C(=O)NNS(=O)(=O)C2CCCCC2)cc1C [Compound I-481]
50 to 100 µM	10 to 50 µM	Cc1cc(-c2cccc(F)c2Cl)cc(C(=O)NNS(=O)(=O)CC2CCCCC2)c1F [Compound I-398]
> 100 µM	> 100 µM	Cc1cccc(-c2cc(Cl)c(F)c(C(=O)NNS(=O)(=O)CC3CCNC3)c2)c1 (centres unmarked) [Compound I-517]
> 100 µM	> 100 µM	Cc1c(F)c(C(=O)NNS(=O)(=O)C2CCCCC2)nn1C [Compound I-475]
> 100 µM	> 100 µM	Cc1cc(-c2ccccc2)cc(C(=O)NNS(=O)(=O)C2CN(Cc3cccc(Cl)c3)C2)c1F [Compound I-28]
10 to 50 µM	> 100 µM	O=C(NNS(=O)(=O)CC1CCOCC1)c1cc(Cl)cc(Cl)c1F [Compound I-412]
≤ 10 µM	≤ 10 µM	Cc1cc(-c2ccccc2)cc(C(=O)NNS(=O)(=O)CC2CCCN(C(=O)C(C)(C)C)C2)c1F (centres unmarked) [Compound I-281]
10 to 50 µM	≤ 10 µM	O=C(NNS(=O)(=O)c1ccc(Cl)cc1)c1c(F)ccc(-c2ccccc2)c1F [Compound I-156]
10 to 50 µM	≤ 10 µM	O=C(NNS(=O)(=O)c1ccccc1)c1c(F)ccc(-c2ccccc2)c1F [Compound I-233]
≤ 10 µM	≤ 10 µM	COc1cccc(CN2CCC(S(=O)(=O)NNC(=O)c3cc(-c4ccccc4)cc(C)c3F)C2)c1 (centres unmarked) [Compound I-26]
≤ 10 µM	≤ 10 µM	Cc1cc(-c2cccc(F)c2)cc(C(=O)NNS(=O)(=O)CC2CN(C(=O)OC(C)(C)C)CCO2)c1F (centres unmarked) [Compound I-425]
> 100 µM	> 100 µM	O=C(NNS(=O)(=O)c1ccccc1)c1c(F)ccc(-c2ccccc2)c1F [Compound I-10]
> 100 µM	> 100 µM	O=C(NNS(=O)(=O)C1CCCCC1)c1cc(CO)cc(Cl)c1F [Compound I-456]
10 to 50 µM	≤ 10 µM	O=C(NNS(=O)(=O)c1ccccc1)c1cc(Cl)ccc1F [Compound I-153]
